Experimental data published in US9486506B2 (Novo Nordisk A/S, priority 2011, dated 2016).
Numbered stars: 1 amine (or outer) side, 2 acyl side, 3 side chain; on linkers, the order of the positions; unused ones are H or OH. Side chains are listed from the residue outwards. Peptide text beside a SMILES is read from it. * marks the point of attachment. C18 diacid = O=C(O)CCCCCCCCCCCCCCCCC(=O)*; γGlu = O=C(O)[C@H](CCC(=O)[*:2])N[*:1]; AEEA = NCCOCCOCC(=O)O

Tests used:
glucagon receptor = target: T1, glucagon receptor (Homo sapiens, UniProt P47871); test: Assay (I) Glucagon activity (cAMP biosensor, FLIPR); type: cell-based
T1 construct: expressed in transfected cells
T1 sequence (P47871 26-477): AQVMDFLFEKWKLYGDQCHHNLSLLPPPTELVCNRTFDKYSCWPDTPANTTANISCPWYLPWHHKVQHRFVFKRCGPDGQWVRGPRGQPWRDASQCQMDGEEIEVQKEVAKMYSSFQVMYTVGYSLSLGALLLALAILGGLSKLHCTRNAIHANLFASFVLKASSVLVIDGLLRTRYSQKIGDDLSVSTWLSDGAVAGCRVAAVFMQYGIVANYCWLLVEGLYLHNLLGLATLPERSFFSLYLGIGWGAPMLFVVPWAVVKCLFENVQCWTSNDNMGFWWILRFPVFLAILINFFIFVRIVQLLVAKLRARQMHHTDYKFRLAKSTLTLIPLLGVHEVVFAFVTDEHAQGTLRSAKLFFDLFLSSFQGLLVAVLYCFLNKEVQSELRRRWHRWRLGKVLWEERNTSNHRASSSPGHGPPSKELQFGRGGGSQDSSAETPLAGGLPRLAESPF

[1] = Assay (X) Chemical stability assessment by RP-UPLC; type: physicochemical; settings: pH 8.15, 14 days at 37° C. vs 5° C., 333 μM
Protocol: Chemical Stability Assessment
Lyophilized samples were dissolved in buffer (see below for detailed compositions) to a final concentration of 333 μM and a pH of 8.15, and were incubated for 14 days at 5° C. and 37° C. followed by RP-UPLC analysis. Purity was defined as the area percentage of the main peak in relation to the total area of all integrated peaks in each chromatogram. Purity loss after 14 days at 37° C. was determined as the difference in purity between the samples incubated at 5° C. and 37° C., divided by the purity of the sample after incubation for 14 days at 5° C.
RP-UPLC analysis was performed using a Waters BEH130 2.1 mm×150 mm, 1.7 μm column operated at 50° C. and a flow rate of 0.4 mL/min using a mobile phase system consisting of typically A: 50 mM Phosphate, 10 w/w % Acetonitrile pH 3 and B: 80 v/v Acetonitrile. UV-detection was performed at 215 nm. The typical gradient profile used for most of the samples is shown below.
For some individual analogues eluting at substantially different retention times compared with the majority of analogues, some adjustments to the gradient profile were made to better enable purity assessment comparison across samples. Also the composition of the channel B mobile phase component was in some of the analyses exchanged for a 90 v/v % Acetonitrile solvent solution in an attempt to better handle carry-over of material from one injection to the next in the sequence. This was however compensated for by recalculating the gradient profile appropriately.
Buffer: • 50 mM Dinatriumphosphatdihydrat • 184 mM Propylenglycol • 58 mM Phenol • pH adjusted to 8.15 with H3PO4. In cases where pH was adjusted to 8.15 after re-suspension of analogues, 0.2 M NaOH was used. Assay (XI) Pharmacokinetic Study in Minipigs

## CC(C)C[C@H](NC(=O)[C@H](Cc1ccc(O)cc1)NC(=O)[C@H](CCCCN)NC(=O)[C@H](CO)NC(=O)[C@H](Cc1ccc(O)cc1)NC(=O)[C@H](CC(=O)O)NC(=O)[C@H](CO)NC(=O)[C@@H](NC(=O)[C@H](Cc1ccccc1)NC(=O)[C@@H](NC(=O)CNC(=O)[C@H](CCC(N)=O)NC(=O)[C@H](CO)NC(=O)[C@@H](N)Cc1c[nH]cn1)[C@@H](C)O)[C@@H](C)O)C(=O)N[C@@H](CCC(=O)O)C(=O)N[C@@H](CO)C(=O)N[C@@H](CCCNC(=N)N)C(=O)N[C@@H](CCCNC(=N)N)C(=O)N[C@@H](C)C(=O)N[C@@H](CCC(N)=O)C(=O)N[C@@H](CC(=O)O)C(=O)N[C@@H](Cc1ccccc1)C(=O)N[C@H](C(=O)N[C@@H](CCCCNC(=O)CC[C@H](NC(=O)CC[C@H](NC(=O)COCCOCCNC(=O)CC[C@H](NC(=O)CCCCCCCCCCCCCCCCC(=O)O)C(=O)O)C(=O)O)C(=O)O)C(=O)N[C@@H](Cc1c[nH]c2ccccc12)C(=O)N[C@@H](CC(C)C)C(=O)N[C@@H](CC(C)C)C(=O)N[C@@H](CO)C(=O)N[C@H](C(=O)O)[C@@H](C)O)C(C)C [Example 1, N^ε24-[(4S)-4-carboxy-4-[[(4S)-4-carboxy-4-[[2-[2-[2-[[(4S)-4-carboxy-4-(17-carboxyheptadecanoylamino)butanoyl]amino]ethoxy]ethoxy]acetyl]amino]butanoyl]amino]butanoyl]-[Glu^15,Lys^24,Leu^27,Ser^28]-Glucagon]
Glucagon receptor
  EC50: 0.28 nM
[1]
  Chemical stability [Purity loss/14 days 37 C.]: 7.6%

## CC(C)C[C@H](NC(=O)[C@H](Cc1ccc(O)cc1)NC(=O)[C@H](CCCCN)NC(=O)[C@H](CO)NC(=O)[C@H](Cc1ccc(O)cc1)NC(=O)[C@H](CC(=O)O)NC(=O)[C@H](CO)NC(=O)[C@@H](NC(=O)[C@H](Cc1ccccc1)NC(=O)[C@@H](NC(=O)CNC(=O)[C@H](Cc1c[nH]cn1)NC(=O)[C@H](CO)NC(=O)[C@@H](N)Cc1c[nH]cn1)[C@@H](C)O)[C@@H](C)O)C(=O)N[C@@H](CC(=O)O)C(=O)N[C@@H](CCC(=O)O)C(=O)N[C@@H](CCCNC(=N)N)C(=O)N[C@@H](CCCNC(=N)N)C(=O)N[C@@H](C)C(=O)N[C@@H](CCCCN)C(=O)N[C@@H](CC(=O)O)C(=O)N[C@@H](Cc1ccccc1)C(=O)N[C@H](C(=O)N[C@@H](CCCCNC(=O)CC[C@H](NC(=O)CC[C@H](NC(=O)COCCOCCNC(=O)COCCOCCNC(=O)CC[C@H](NC(=O)CCCCCCCCCCCCCCCCC(=O)O)C(=O)O)C(=O)O)C(=O)O)C(=O)N[C@@H](Cc1c[nH]c2ccccc12)C(=O)N[C@@H](CC(C)C)C(=O)N[C@@H](CC(C)C)C(=O)N[C@@H](CO)C(=O)N[C@H](C(=O)O)[C@@H](C)O)C(C)C [Example 4, N^ε24-[(4S)-4-carboxy-4-[[(4S)-4-carboxy-4-[[2-[2-[2-[[2-[2-[2-[[(4S)-4-carboxy-4-(17-carboxyheptadecanoylamino)butanoyl]amino]ethoxy]ethoxy]acetyl]amino]ethoxy]ethoxy]acetyl]amino]butanoyl]amino]butanoyl]-[His^3,Glu^16,Lys^20,Lys^24,Leu^27,Ser^28]-Glucagon] (H-HSHGTFTSDYSKYLDERRAKDFVK([γGlu-γGlu-AEEA-AEEA-γGlu-C18 diacid])WLLST-OH)
Glucagon receptor
  EC50: 0.237 nM
[1]
  Chemical stability [Purity loss/14 days 37 C.]: 7.5%

## CC(C)C[C@H](NC(=O)[C@H](Cc1c[nH]c2ccccc12)NC(=O)[C@H](CCCCNC(=O)CC[C@H](NC(=O)CC[C@H](NC(=O)COCCOCCNC(=O)COCCOCCNC(=O)CC[C@H](NC(=O)CCCCCCCCCCCCCCCCC(=O)O)C(=O)O)C(=O)O)C(=O)O)NC(=O)[C@@H](NC(=O)[C@H](Cc1ccccc1)NC(=O)[C@H](CC(=O)O)NC(=O)[C@H](CCC(N)=O)NC(=O)[C@H](C)NC(=O)[C@H](CCCNC(=N)N)NC(=O)[C@H](CCCNC(=N)N)NC(=O)[C@@H](NC(=O)[C@H](CCC(=O)O)NC(=O)[C@H](CC(C)C)NC(=O)[C@H](Cc1ccc(O)cc1)NC(=O)[C@H](CCCCN)NC(=O)[C@H](CO)NC(=O)[C@H](Cc1ccc(O)cc1)NC(=O)[C@H](CC(=O)O)NC(=O)[C@H](CO)NC(=O)[C@@H](NC(=O)[C@H](Cc1ccccc1)NC(=O)[C@@H](NC(=O)CNC(=O)[C@H](Cc1c[nH]cn1)NC(=O)[C@H](CO)NC(=O)[C@@H](N)Cc1c[nH]cn1)[C@@H](C)O)[C@@H](C)O)[C@@H](C)O)C(C)C)C(=O)N[C@@H](CC(C)C)C(=O)N[C@@H](CC(N)=O)C(=O)N[C@H](C(=O)O)[C@@H](C)O [Example 9, N^ε24-[(4S)-4-carboxy-4-[[(4S)-4-carboxy-4-[[2-[2-[2-[[2-[2-[2-[[(4S)-4-carboxy-4-(17-carboxyheptadecanoylamino)butanoyl]amino]ethoxy]ethoxy]acetyl]amino]ethoxy]ethoxy]acetyl]amino]butanoyl]amino]butanoyl]-[His^3,Glu^15,Thr^16,Lys^24,Leu^27]-Glucagon] (H-HSHGTFTSDYSKYLETRRAQDFVK([γGlu-γGlu-AEEA-AEEA-γGlu-C18 diacid])WLLNT-OH)
Glucagon receptor
  EC50: 0.036 nM
[1]
  Chemical stability [Purity loss/14 days 37 C.]: 10%

## CC(C)C[C@H](NC(=O)[C@H](Cc1c[nH]c2ccccc12)NC(=O)[C@H](CCCCNC(=O)CC[C@H](NC(=O)CC[C@H](NC(=O)COCCOCCNC(=O)COCCOCCNC(=O)CC[C@H](NC(=O)CCCCCCCCCCCCCCCCC(=O)O)C(=O)O)C(=O)O)C(=O)O)NC(=O)[C@@H](NC(=O)[C@H](Cc1ccccc1)NC(=O)[C@H](CC(=O)O)NC(=O)[C@H](CCC(N)=O)NC(=O)[C@H](C)NC(=O)[C@H](CCCNC(=N)N)NC(=O)[C@H](CCCNC(=N)N)NC(=O)[C@@H](NC(=O)[C@H](CC(=O)O)NC(=O)[C@H](CC(C)C)NC(=O)[C@H](Cc1ccc(O)cc1)NC(=O)[C@H](CCCNC(=N)N)NC(=O)[C@H](CO)NC(=O)[C@H](Cc1ccc(O)cc1)NC(=O)[C@H](CC(=O)O)NC(=O)[C@H](CO)NC(=O)[C@@H](NC(=O)[C@H](Cc1ccccc1)NC(=O)[C@@H](NC(=O)CNC(=O)[C@H](CCC(N)=O)NC(=O)[C@H](CO)NC(=O)[C@@H](N)Cc1c[nH]cn1)[C@@H](C)O)[C@@H](C)O)[C@@H](C)O)C(C)C)C(=O)N[C@@H](CC(C)C)C(=O)N[C@@H](CC(N)=O)C(=O)N[C@H](C(=O)O)[C@@H](C)O [Example 10, N^ε24-[(4S)-4-carboxy-4-[[(4S)-4-carboxy-4-[[2-[2-[2-[[2-[2-[2-[[(4S)-4-carboxy-4-(17-carboxyheptadecanoylamino)butanoyl]amino]ethoxy]ethoxy]acetyl]amino]ethoxy]ethoxy]acetyl]amino]butanoyl]amino]butanoyl]-[Arg^12,Thr^16,Lys^24,Leu^27]-Glucagon] (H-HSQGTFTSDYSRYLDTRRAQDFVK([γGlu-γGlu-AEEA-AEEA-γGlu-C18 diacid])WLLNT-OH)
Glucagon receptor
  EC50: 0.031 nM
[1]
  Chemical stability [Purity loss/14 days 37 C.]: 10.3%

## CC(C)C[C@H](NC(=O)[C@H](Cc1ccc(O)cc1)NC(=O)[C@H](CCCNC(=N)N)NC(=O)[C@H](CO)NC(=O)[C@H](Cc1ccc(O)cc1)NC(=O)[C@H](CC(=O)O)NC(=O)[C@H](CO)NC(=O)[C@@H](NC(=O)[C@H](Cc1ccccc1)NC(=O)[C@@H](NC(=O)CNC(=O)[C@H](CCC(N)=O)NC(=O)[C@H](CO)NC(=O)[C@@H](N)Cc1c[nH]cn1)[C@@H](C)O)[C@@H](C)O)C(=O)N[C@@H](CCC(=O)O)C(=O)N[C@@H](CO)C(=O)N[C@@H](CCCNC(=N)N)C(=O)N[C@@H](CCCNC(=N)N)C(=O)N[C@@H](C)C(=O)N[C@@H](CCC(N)=O)C(=O)N[C@@H](CC(=O)O)C(=O)N[C@@H](Cc1ccccc1)C(=O)N[C@H](C(=O)N[C@@H](CCCCNC(=O)CC[C@H](NC(=O)CC[C@H](NC(=O)COCCOCCNC(=O)COCCOCCNC(=O)CC[C@H](NC(=O)CCCCCCCCCCCCCCCCC(=O)O)C(=O)O)C(=O)O)C(=O)O)C(=O)N[C@@H](Cc1c[nH]c2ccccc12)C(=O)N[C@@H](CC(C)C)C(=O)N[C@@H](CC(C)C)C(=O)N[C@@H](CO)C(=O)N[C@H](C(=O)O)[C@@H](C)O)C(C)C [Example 14, N^ε24-[(4S)-4-carboxy-4-[[(4S)-4-carboxy-4-[[2-[2-[2-[[2-[2-[2-[[(4S)-4-carboxy-4-(17-carboxyheptadecanoylamino)butanoyl]amino]ethoxy]ethoxy]acetyl]amino]ethoxy]ethoxy]acetyl]amino]butanoyl]amino]butanoyl]-[Arg^12,Glu^15,Lys^24,Leu^27,Ser^25]-Glucagon] (H-HSQGTFTSDYSRYLESRRAQDFVK([γGlu-γGlu-AEEA-AEEA-γGlu-C18 diacid])WLLST-OH; N-terminus and C-terminus assumed)
[1]
  Chemical stability [Purity loss/14 days 37 C.]: 8.6%
